Test results: patent US20230278972A1, “SUBSTITUTED HALOALKYL SULFONANILIDE HERBICIDES” (FMC Corporation, priority 2020, published 2023)
Where two headings read alike, the source gives them in different places.

Columns and labels:
[1] = system: Ryegrass, Italian (Italian ryegrass, Lolium multiflorum); assay: Test A preemergence, Ryegrass, Italian; type: in vivo; settings: Lolium multiflorum, pre-emergence, 240 h, Preemergence; for pest or weed control at 125 g/ha: 125 g ai/ha; for pest or weed control at 500 g/ha: 500 g ai/ha
Method in brief: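 Compounds in non-phytotoxic solvent with surfactant. Soil: loam/sand. Preemergence via directed soil spray after seeding; postemergence on seedlings 2–10 cm, one- to two-leaf.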

[2] = system: pigweed (Amaranthus retroflexus); assay: Test A preemergence, pigweed; type: in vivo; settings: Amaranthus retroflexus, pre-emergence, 240 h; for pest or weed control at 125 g/ha: 125 g ai/ha; for pest or weed control at 500 g/ha: 500 g ai/ha
Method in brief: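 Greenhouse pot test in a loam–sand blend; compounds delivered in a non-phytotoxic solvent carrying a surfactant, applied either as a directed spray to soil at seeding or over seedlings 2 to 10 cm high with one to two leaves.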

[3] = visual injury on 0 to 100 scale (0 no effect, 100 complete control), approximately 10 days, read-out: Ryegrass, Italian plant response rating
[4] = 0 to 100 scale (0 no effect, 100 complete control), read-out: Plant response rating, Ryegrass, Italian
[5] = visual injury on 0 to 100 scale (0 no effect, 100 complete control), approximately 10 days, read-out: Pigweed plant response rating
[6] = 0 to 100 scale (0 no effect, 100 complete control), read-out: Plant response rating, Pigweed
[7] = visual injury, 0 to 100 scale (0 no effect, 100 complete control), approx. 10 days, read-out: Plant response rating, Ryegrass, Italian
[8] = visual injury, 0 to 100 scale (0 no effect, 100 complete control), approx. 10 days, read-out: Plant response rating, Pigweed

| melting point | Compound | pest or weed control at 125 g/ha [1, 3] | pest or weed control at 500 g/ha [1, 4] | pest or weed control at 125 g/ha [2, 5] | pest or weed control at 500 g/ha [2, 6] | pest or weed control at 125 g/ha [1, 7] | pest or weed control at 125 g/ha [2, 8] | pest or weed control at 500 g/ha [1, 3] | pest or weed control at 500 g/ha [2, 5] |
| --- | --- | --- | --- | --- | --- | --- | --- | --- | --- |
| – | Cc1cc(Cl)c(NS(=O)(=O)C(F)(F)F)cc1C(=O)N1CCOCC1 [Compound 16, N-[2-Chloro-4-methyl-5-(4-morpholinylcarbonyl)phenyl]-1,1,1-trifluoromethanesulfonamide] | 90% | 100% | 100% | 100% | – | – | – | – |
| – | Cc1cc(Cl)c(NS(=O)(=O)C(F)(F)F)cc1C(=O)N1CCCCC1 [Compound 18, N-[2-Chloro-4-methyl-5-(1-piperidinylcarbonyl)phenyl]-1,1,1-trifluoromethanesulfonamide] | 90% | 90% | 100% | 100% | – | – | – | – |
| – | CCc1cc(-c2cc(NS(=O)(=O)C(F)(F)F)c(C)cc2C)c(=O)n(C)n1 [Compound 34, N-[5-(6-Ethyl-2,3-dihydro-2-methyl-3-oxo-4-pyridazinyl)-2,4-dimethylphenyl]-1,1,1-trifluoromethanesulfonamide] | 30% | 70% | – | – | – | – | – | – |
| – | Cc1cc(C)c(N(COC(=O)C(C)(C)C)S(=O)(=O)C(F)(F)F)cc1C1=NO[C@@H]2CCC[C@H]12 [Compound 100, [[2,4-Dimethyl-5-[(3aR,6aR)-3a,5,6,6a-tetrahydro-4H-cyclopent[d]isoxazol-3-yl]phenyl][(trifluoromethyl)sulfonyl]amino]methyl 2,2-dimethylpropanoate] | 40% | 70% | 70% | 80% | – | – | – | – |
| – | Cc1cc(C)c(C2=NO[C@@H]3CCC[C@H]23)cc1NS(=O)(=O)C(F)(F)F [Compound 103, N-[2,4-Dimethyl-5-[(3aR,6aR)-3a,5,6,6a-tetrahydro-4H-cyclopent[d]isoxazol-3-yl]phenyl]-1,1,1-trifluoromethanesulfonamide] | 90% | 90% | 100% | 100% | – | – | – | – |
| – | Cc1cc(C)c(C2=NOC3CCOCC23)cc1NS(=O)(=O)C(F)(F)F (stereo not shown) [Compound 120, N-[2,4-Dimethyl-5-(3a,6,7,7a-tetrahydro-4H-pyrano[3,4-d]isoxazol-3-yl)phenyl]-1,1,1-trifluoromethanesulfonamide] | 100% | 100% | – | – | – | – | – | – |
| 117 to 120 °C | Cc1cc(C)c(C2=NOC3COCCC23)cc1NS(=O)(=O)C(F)(F)F (stereo not shown) [Compound 121, N-[2,4-Dimethyl-5-(3a,4,7,7a-tetrahydro-5H-pyrano[4,3-d]isoxazol-3-yl)phenyl]-1,1,1-trifluoromethanesulfonamide] | 100% | 100% | – | – | – | – | – | – |
| 243 to 245 °C | Cc1c(NS(=O)(=O)C(F)(F)F)cc(C(=O)N(C)C)c(C)c1F [Compound 128, 3-Fluoro-N,N,2,4-tetramethyl-5-[[(trifluoromethyl)sulfonyl]amino]benzamide] | 100% | 100% | 100% | 100% | – | – | – | – |
| – | Cc1cc(C)c(N(COC(=O)C(C)(C)C)S(=O)(=O)C(F)(F)F)cc1C1=NOC2(CCCC2)C1 [Compound 140, [[2,4-Dimethyl-5-(1-oxa-2-azaspiro[4.4]non-2-en-3-yl)phenyl][(trifluoromethyl)sulfonyl]amino]methyl 2,2-dimethylpropanoate] | 0% | 100% | 0% | 50% | – | – | – | – |
| – | Cc1cc(C)c(N(COC(=O)C(C)(C)C)S(=O)(=O)C(F)(F)F)cc1C1=NOC2(CCCCC2)C1 [Compound 159, [[2,4-Dimethyl-5-(1-oxa-2-azaspiro[4.5]dec-2-en-3-yl)phenyl][(trifluoromethyl)sulfonyl]amino]methyl 2,2-dimethylpropanoate] | 0% | 30% | – | – | – | – | – | – |
| 236 to 240 °C | Cc1c(NS(=O)(=O)C(F)(F)F)cc(C(=O)N2CCOCC2)c(C)c1F [Compound 190, 1,1,1-Trifluoro-N-[3-fluoro-2,4-dimethyl-5-(4-morpholinylcarbonyl)phenyl]methanesulfonamide] | – | 100% | – | 100% | 70% | 100% | – | – |
| – | Cc1cc(C)c(C2=NOC3(CCCCC3)C2)cc1NS(=O)(=O)C(F)(F)F [Compound 197, N-[2,4-Dimethyl-5-(1-oxa-2-azaspiro[4.5]dec-2-en-3-yl)phenyl]-1,1,1-trifluoromethanesulfonamide] | – | 100% | – | 100% | 100% | 80% | – | – |
| – | Cc1cc(C)c(C2=NOC3(CCCC3)C2)cc1NS(=O)(=O)C(F)(F)F [Compound 207, N-[2,4-Dimethyl-5-(1-oxa-2-azaspiro[4.4]non-2-en-3-yl)phenyl]-1,1,1-trifluoromethanesulfonamide] | – | 100% | – | 100% | 90% | 100% | – | – |
| – | Cc1cc(Cl)c(NS(=O)(=O)C(F)(F)F)cc1C(=O)N1CCC(F)(F)CC1 [Compound 229, N-[2-Chloro-5-[(4,4-difluoro-1-piperidinyl)carbonyl]-4-methylphenyl]-1,1,1-trifluoromethanesulfonamide] | – | – | – | – | 60% | 100% | 90% | 100% |
| – | Cc1cc(C)c(C(=O)N2CCC(F)(F)CC2)cc1NS(=O)(=O)C(F)(F)F [Compound 241, N-[5-[(4,4-Difluoro-1-piperidinyl)carbonyl]-2,4-dimethylphenyl]-1,1,1-trifluoromethanesulfonamide] | – | – | – | – | 70% | 100% | 100% | 100% |
